Measurements taken from patent US10842151B2, “Small molecule compound for enhancing plant stress resistance” (SHANGHAI INSTITUTES FOR BIOLOGICAL SCIENCES, CHINESE …, priority 2015, dated 2020).

Key:
[1] = test system: PYR/PYL receptors (PYR1, PYL1, PYL2 and PYL7)-HAB1 complex; test: Broad spectrum experiment on PYR/PYL receptors (HAB1 phosphatase activity); assay type: biochemical, Arabidopsis; details: 1 μM; for binding ability with PYR1/PYL1/PYL2/PYL7 compared with ABA: FIG. 1, FIG. 13
Description: (§1) HAB1 Phosphatase Activity Assay […] The reaction system was incubated at room temperature for 30 minutes, followed by a further reaction for 30 minutes after adding an 11-amono acid phosphorylated polypeptide as a substrate. The phosphorylated polypeptide consisting of amino acid 170-180 of SnRK2.6 protein kinase (sequence […]) was purchased from […] company, wherein phosphorylated […] was a known HAB1 dephosphorylation target site. After 30 minutes, chromogenic reagent (purchased from BioVision) was added and the absorbance at 650 nm was read on a microplate reader (Molecular Devices).

[2] = test system: soybean; test: Soil drought experiment, soybean; assay type: in vivo
Description: Only one plant was contained in each pot. All soybean plants were long-day cultured at 26° C. Watering was stopped after the plant had three leaves in each of three groups of leaves and the plants with consistent growth were selected for drought treatment. As for corn, watering was stopped during the small trumpet period for drought treatment. […] After a week, the watering was resumed. Soybeans and cotton used in leaf transpiration experiments for compound 0720B were also used for soil drought experiments. Each pot contained only one plant and was filled with the same weight of soil to reduce experimental errors. All of the soybean plants were grown at 26° C. for long-day culture. 16 days after seeding, watering was stopped and the plants with consistent growth were selected for drought treatment. […] Cotton drought experiments were similar to that of the soybean. 23 days after seeding, the watering was stopped, and the plants with consistent growth were selected for drought treatment. […] After 10 days of drought, the photos were taken.

[3] = test system: soybean Williams 82; test: Soybean leaf transpiration experiment (thermal imaging); assay type: in vivo
Description: After three weeks of continuous watering, 0.05% tween-20 and corresponding concentrations of DMSO (control)/compound (+)-ABA/0918/1127 were sprayed onto the plants in a single administration with an amount of 1.2 ml/pot. Images were taken daily using the FLIR A655sc thermal imaging camera at the same time before and after spraying. The Williams 82 ecotype was used in soybean leaf transpiration experiments for compounds 0604c, 0918 and 1127 and was long-day cultured at 26° C. After the plants grew and had 3 leaves in each of 3 groups, 0.05% tween-20 and 50 μM DMSO (control)/(+)-ABA/0604c/0918/1127 compounds were sprayed in a single administration with an amount of 4 ml/pot. Images were taken daily using the FLIR A655sc thermal imaging camera at the same time before and after spraying.
(§2) Leaf transpiration experiments of soybean and cotton for compound 0720B were carried out at 26° C. with long-day lighting. 16 days and 23 days after sowing, a solution containing 0.1% tween-20 and corresponding concentration of (+)-ABA, or 0720B compound or 0.1% Tween-20 and 0.05% DMSO (control) was sprayed in an amount of 4 ml/pot. Images were taken daily using the FLIR A655sc thermal imaging camera at the same time before and after spraying.

[4] = target: T1, PYL2 + HAB1 (Arabidopsis thaliana, UniProt O80992); test: AlphaScreen experiment, PYL2 + HAB1; assay type: binding; details: number in brackets; read-out: Half maximum effect concentration EC50 (PYL2 + HAB1)
T1 construct: made in house; host or cells: E. coli BL21 (DE3)
T1 sequence (O80992 14-188 limits assumed): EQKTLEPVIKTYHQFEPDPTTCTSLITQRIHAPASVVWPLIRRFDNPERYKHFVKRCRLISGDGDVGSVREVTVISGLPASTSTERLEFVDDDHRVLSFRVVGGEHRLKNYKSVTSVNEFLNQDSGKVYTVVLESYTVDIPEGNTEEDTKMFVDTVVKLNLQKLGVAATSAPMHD
T1 sequence (Q9CAJ0 172-511 partner limits assumed): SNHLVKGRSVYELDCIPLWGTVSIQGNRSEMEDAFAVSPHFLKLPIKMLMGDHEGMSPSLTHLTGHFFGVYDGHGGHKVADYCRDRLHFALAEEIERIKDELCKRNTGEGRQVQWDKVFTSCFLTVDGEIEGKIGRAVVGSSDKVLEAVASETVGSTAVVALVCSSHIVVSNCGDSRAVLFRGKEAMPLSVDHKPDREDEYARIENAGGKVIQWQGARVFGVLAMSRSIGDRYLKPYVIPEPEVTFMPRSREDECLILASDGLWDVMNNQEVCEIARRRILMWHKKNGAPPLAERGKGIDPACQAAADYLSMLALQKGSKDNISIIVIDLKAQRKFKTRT
Description: (§3) After incubating for 1.5 hours at room temperature in the dark, it was placed into an Envision Plate Reader (available from Perkin Elmer) under the programmed AlphaScreen procedure for readings.

[5] = test system: cotton; test: Cotton leaf transpiration experiment (thermal imaging); assay type: in vivo; details: 50 μM; after two days; vs DMSO
Description: as §2

[6] = test system: PYR1/PYL1/PYL2/PYL7 + HAB1; test: AlphaScreen experiment, PYL receptor binding to HAB1; design: species or system Arabidopsis; details: AMX: PYR1/PYL1/PYL2/PYL7; 0720B: PYL2 receptor and PYL1 receptor
Description: as §3

[7] = target: T1, PYL2 + HAB1; test: HAB1 phosphatase activity assay with PYL2, SnRK2.6 phosphorylated polypeptide substrate; assay type: biochemical; details: PYL2 receptor; same concentration as ABA
Description: as §1

[8] = test system: cotton; test: Soil drought experiment, cotton; assay type: in vivo; details: 50 μM every 4 days; after 10 days of drought
Description: Soybeans and cotton used in leaf transpiration experiments for compound 0720B were also used for soil drought experiments. Each pot contained only one plant and was filled with the same weight of soil to reduce experimental errors. All of the soybean plants were grown at 26° C. for long-day culture. 16 days after seeding, watering was stopped and the plants with consistent growth were selected for drought treatment. […] Cotton drought experiments were similar to that of the soybean. 23 days after seeding, the watering was stopped, and the plants with consistent growth were selected for drought treatment. […] After 10 days of drought, the photos were taken.

[9] = test system: pyr1;pyl1;pyl4 triple mutant seeds; test: Seed germination, PYR/PYL triple mutant; assay type: in vivo, Arabidopsis thaliana; details: 1 μM; six days after seeding
Excerpt: (§4) Two lines of plant were sown simultaneously on a single medium of 6 cm diameter, with 15 seeds sown for each line and 4 replicates for each compound. […]

[10] = target: T2, PYR1 + HAB1 (Arabidopsis thaliana, UniProt O49686); test: AlphaScreen experiment, PYR1 + HAB1; assay type: binding; details: column 2; number in brackets; read-out: Half maximum effect concentration EC50 (PYR1 + HAB1)
T2 sequence (O49686 1-191): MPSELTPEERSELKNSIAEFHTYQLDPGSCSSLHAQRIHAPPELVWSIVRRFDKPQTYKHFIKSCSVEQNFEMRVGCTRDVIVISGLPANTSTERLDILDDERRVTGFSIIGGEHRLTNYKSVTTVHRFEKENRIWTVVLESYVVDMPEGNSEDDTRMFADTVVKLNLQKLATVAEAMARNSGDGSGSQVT
T2 sequence (Q9CAJ0 172-511 partner): T1 sequence (Q9CAJ0 172-511 partner limits assumed)
Description: as §3

[11] = test system: maize (corn); test: Soil drought experiment, maize; assay type: in vivo; details: 50 μM; a week of drought
Description: Only one plant was contained in each pot. All soybean plants were long-day cultured at 26° C. Watering was stopped after the plant had three leaves in each of three groups of leaves and the plants with consistent growth were selected for drought treatment. As for corn, watering was stopped during the small trumpet period for drought treatment. […] After a week, the watering was resumed.

[12] = test system: Arabidopsis ABA synthesis defective mutant aba2-1; assay type: in vivo, Arabidopsis thaliana; details: 5 μM sprayed; after 4 days; vs DMSO
[13] = target: T3, PYL7 + HAB1 (Arabidopsis thaliana, UniProt Q1ECF1); test: AlphaScreen experiment, PYL7 + HAB1; assay type: binding; details: number in brackets; read-out: Half maximum effect concentration EC50 (PYL7 + HAB1)
T3 construct: made in house; host or cells: E. coli BL21 (DE3)
T3 sequence (Q1ECF1 1-211): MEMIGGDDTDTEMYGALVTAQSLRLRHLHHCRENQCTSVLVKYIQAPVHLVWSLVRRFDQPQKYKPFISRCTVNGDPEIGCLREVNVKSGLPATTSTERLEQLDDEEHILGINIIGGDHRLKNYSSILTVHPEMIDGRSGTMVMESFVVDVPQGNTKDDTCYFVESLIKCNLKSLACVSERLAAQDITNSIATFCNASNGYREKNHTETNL
T3 sequence (Q9CAJ0 172-511 partner limits assumed): T1 sequence (Q9CAJ0 172-511 partner limits assumed)
Description: as §3

[14] = test system: Arabidopsis Col-0 ecotype; test: Soil drought experiment, Arabidopsis; assay type: in vivo, Arabidopsis thaliana
Description: Seeds of Arabidopsis Col-0 ecotype were sterilized with NaClO and then sown on ½ MS solid medium at 4° C. for 3 days of vernalization. After 6 days of growing, the well-grown seedlings having uniform size were selected and transferred into 8×7×6 cm^3 pots. Each pot was filled with the same weight of soil and the same number of plants (six plants) was planted to reduce experimental error. All the pots were subjected to a short-day culture at 22° C. After two weeks, watering was stopped for drought treatment. […] The position of the flowerpot was changed every day during the process of drought to reduce the error caused by environmental factors. During the whole drought period, the solution was sprayed twice in total and photos were recorded regularly. The watering was resumed in about three weeks.

[15] = test system: Arabidopsis thaliana Col-0 ecotype seeds; test: Seed germination, Col-0; assay type: in vivo; details: 1 μM
Excerpt: as §4

[16] = test system: ABA-induced environmental stress-related gene expression; test: Gene expression analysis (fluorescence quantitative PCR); assay type: in vivo, Arabidopsis thaliana (Col-0); details: one day after treatment; ABA 10 μM
Description: The whole plant or leaves were taken, and RNA extraction was carried out by using conventional methods. After reverse transcription, the fluorescence quantitative PCR was carried out. Triple biological samples were taken for each treatment which was performed twice. The ACT7 gene was used as a reference gene.

[17] = test system: soybean GmPYL3 and GmPYL6 + Arabidopsis AtHAB1; test: AlphaScreen experiment with soybean GmPYL receptors; assay type: binding; details: FIG. 9
Description: as §3

CCCN1C(=O)CC(C)c2cc(NS(=O)(=O)Cc3c(F)c(F)c(C)c(F)c3F)ccc21 (stereo not drawn) [Compound 0720B]
binding ability with PYR1/PYL1/PYL2/PYL7 compared with ABA [1]: significantly higher than that of ABA | growth after rewatering ([2]; 10 μM, 20 μM or 50 μM every 3 days, rewatered 11 days after drought): significantly better than that of the plants sprayed with DMSO (control) and the plants sprayed with 50 μM ABA | leaf temperature ([3]; one day after spraying, 10 μM, 20 μM or 50 μM): significantly higher than that of plants in DMSO-sprayed control and that of plants sprayed with 50 μM ABA | leaf temperature ([3]; two days after spraying, 0720B 20 μM or 50 μM, ABA 50 μM): significantly higher than that of the DMSO-sprayed control | EC50 [4]: 30 nM | leaf temperature [5]: significantly higher than that in plants sprayed with DMSO | PYL receptor binding affinity compared with ABA [6]: significantly superior to ABA | inhibition of the dephosphorylation effect of HAB1 on SnRK2.6 phosphorylated polypeptide compared with ABA [7]: significantly better than that of ABA at the same concentration | growth [8]: significantly better than that of the plants sprayed with DMSO (control) and the plants sprayed with 50 μM ABA

CCCN1C(=O)CCc2cc(NS(=O)(=O)Cc3ccc(C)c(F)c3F)ccc21 [Compound 0918]
binding to PYR/PYL receptors [1]: could bind with PYR1/PYL1/PYL2/PYL3/PYL4/PYL5/PYL7/PYL10 | binding ability with PYR1/PYL1/PYL2/PYL7 compared with ABA [1]: significantly higher than those of ABA | germination of pyr1;pyl1;pyl4 triple mutant seeds [9]: could not inhibit germination of PYR/PYL triple mutant pyr1;pyl1;pyl4 seeds | growth ([2]; 50 μM, a week of drought, one month after rewatering): grew significantly better than the plants sprayed with DMSO (control) and sprayed with 50 μM ABA | EC50 [10]: 20 nM | survival after rewatering [11]: Most of the corn sprayed with compound 0918 survived after rewatering | leaf temperature [12]: still higher than that in the control group | EC50 [4]: 30 nM | EC50 [13]: 20 nM | plant survival ([14]; 5 μM sprayed, 18 days after drought): still survived | drought resistance compared with compound with fewer halogen atoms (0604c) ([14]; same concentration, after 2 weeks of drought, FIG. 8c): stronger drought resistance | inhibition effect on germination of Col-0 ecotype seeds compared with control compound [15]: significantly better inhibition effect | germination of Col-0 ecotype seeds ([15]; six days after seeding): could still inhibit germination of Col-0 ecotype seeds | expression level of relevant genes compared with ABA [16]: significantly higher than that in the plants treated with 10 μM ABA | affinities for soybean GmPYL proteins compared with ABA [17]: significantly higher affinities
